Measurements: PMC10289085, “The cytotoxicity effect of 7-hydroxy-3,4-dihydrocadalene from Heterotheca inuloides and semisynthetic cadalenes derivates towards breast cancer cells: involvement of oxidative stress-mediated apoptosis” (PeerJ, 2023)
“Also recorded” adds a separate entry of the source.

Columns and labels:
[1] = system: MCF7 human breast cancer cells; assay: MTT assay: cell viability; assay type: cell-based; conditions: for MCF7 cell viability: 0.1 to 100 µM, 24, 48 and 72 h; for IC50: MCF7, MTT
Description: MCF7 (#HTB-22) cell line, derived from human breast adenocarcinoma, was obtained from the American Type Culture Collection (ATCC®, Manassas, VA, USA). It was maintained under standard conditions: RPMI-1640, 2.0 g/L NaHCO3, supplemented with 10% FBS and gentamicin […].
(§1) Cells were treated with isolated compounds (0.1, 1, 5, 10, 25, 50 and 100 µM) for 24, 48 and 72 h. After treatments, culture media was replaced by MTT (100 μL) dissolved in RPMI media (0.33 mg/mL final concentration) per well and incubated at 37 °C with 5% CO2 for 1 h in dark. After incubating, supernatant was removed and replaced with DMSO to dissolve formazan crystals. Absorbance value was measured in a microplate reader (SPECTROstar Nano; BMG Labtech, Ortenberg, Germany) at 570 nm. IC25 and IC50 values were determined using GraphPad Prism 7.00 (GraphPad Software, La Jolla, CA, USA). Percentage of cell viability was calculated in comparison with control cells ([Mosmann, 1983]).

[2] = system: Bcl-2; assay: Immunoblotting of Bcl-2; assay type: cell-based, human; conditions: MCF7, 48 h, IC50 and IC50/2
Description: (§2) Western blot assays were performed using standard techniques. Primary antibodies were anti-caspase-3, Bcl-2 and GAPDH from Santa Cruz Biotechnology (Santa Cruz Biotechnology, Inc., Dallas, TX, USA). The secondary antibody was anti-rabbit IgG, HRP-linked (Antibody #7074; Cell Signaling Technology, Danvers, MA, USA).

[3] = system: caspase 3; assay: Immunoblotting of caspase 3; assay type: cell-based, human; conditions: MCF7, 48 h; compound at IC50 concentration, H2O2 1.0 mM
Description: as §2

[4] = system: HEK 293 cells; assay: MTT assay: cell viability in non-tumoral control cells; assay type: cell-based, human; conditions: non-tumoral cells from kidney, 72 h
Description: HEK 293 (CRL-1573) cell line, human embryonic kidney, was obtained from ATCC® (Manassas, VA, USA). It was grown in DMEM medium (Caisson Laboratories, Inc., Smithfield, UT, USA) with 10% v/v phenol red of inactivated FBS, 44 mM NaHCO3, 1 mM sodium pyruvate and penicillin 100 I.U.−100 μg/mL streptomycin−25 ng/mL amphotericin B, pH 7.4. Both cell lines were incubated at 37 °C and 5% CO2.
as §1

[5] = system: mitochondrial respiration of MCF7 cells; assay: Cell respirometry (high resolution, O2k); assay type: cell-based, human; conditions: MCF7, IC50, 48 h
Description: The oxygen consumption experiments were performed using a high resolution respirometry equipment O2k meter (Oroboros Instruments, Innsbruck, Austria) described by [Aparicio-Trejo et al. (2019)]. The respiratory parameters were defined as: (A) Routine respiration, corresponding to oxygen consumption in presence only of cells in culture medium. (B) Leak of the respiration, corresponding to cellular oxygen consumption in presence of 15 μM oligomycin. (C) RCI corresponding to the ratio basal/leak. (D) Respiration attributable to OXPHOS (P) corresponding to: Routine-Leak. All parameters were corrected by subtracting non-mitochondrial respiration resulting from the addition of 15 μM rotenone and 15 μM antimycin A and normalized by cells number.

[6] = system: MCF7 cell line; set-up: method as in Rodríguez-Chávez et al. (2015b); conditions: ref Rodríguez-Chávez et al. (2015b); cited from earlier work
[7] = system: MCF7 cells; assay: Wound-healing assay: cell migration; assay type: cell-based, human; conditions: IC50 (55.24 μM), 24, 48 and 72 h
Description: Wound areas were monitored at four different times (0, 24, 48, and 72 h) using the Cytation 5 cell imager (BioTek Instruments, Inc., Winooski, VT, USA). To determine the migration rate of the cells, the wound areas were quantified using the ImageJ software, ([Schneider, Rasband & Eliceiri, 2012]). The variation between the percentage of cell migration (as a function of time) was calculated using the following formula:
%Migration=100−[(Areaofinjurytimet/Areaofinjurytimezero)(100)]

[8] = system: caspase-9; assay: Caspase-9 activity assay (fluorometric, cell lysates); assay type: cell-based, human; conditions: MCF7, 48 h; for Caspase 9 activity compared to control cells: compound at IC50, H2O2 1.0 mM
Description: (§3) Mechanical scraping was employed to collect adherent MCF7 cells after treatments. Then, cells were centrifugated (1,500 rpm for 5 min at 37 °C) and supernatants were removed. Pellets were lyzed adding lysis buffer (25 mM TrisHCl, pH 7.4, 150 mM NaCl, 1 mM EDTA, 0.1% Triton X-100, 1 mg/mL leupeptin, 0.5 mM PMSF and 1 mg/mL pepstatin) and put on ice for 20 min. Finally, cell lysates were centrifugated (2,500 rpm for 10 min at 4 °C) and supernatants were collected to following assays.
(§4) Fluorometric assays of caspase-3 and caspase-9 enzymes were performed in accordance with the instructions provided by ALEXIS Biochemicals kits (Enzo Life Sciences Inc., San Diego, CA, USA). This enzymatic assay was based on hydrolysis of the peptide substrates of caspases-3/9 (Ac-DEVD 20 μM and Ac-LEHD 20 μM, respectively) conjugated to a fluorochrome (7-amido-4-methylcoumarin or AMC) at the terminal carbon of Asp, resulting in the release of the fluorescent motif. Cell lysates (20 μg) were used for each treatment. After incubation for 1 h at 37 °C, fluorescence was determined using a FLx800 microplate reader at excitation and emission wavelengths of 380 and 460 nm, respectively.

[9] = system: lipid peroxidation in MCF7 cells; assay: TBARS assay: lipid peroxidation; assay type: cell-based, human; conditions: MCF7, 48 h
Description: as §3
Total protein concentrations were measured as described by [Smith et al. (1985)]. BCA/CuSO4 reactive solution (1:20) was added to each cell lysates and incubated in the dark for 30 min at 37 °C. Absorbance was measured with a SPECTROstar Nano microplate reader (BMG Labtech, Ortenberg, Germany) at a wavelength of 550 nm.
Lipid peroxidation was measured colorimetrically as described by [Uchiyama & Mihara (1978)]. Cell pellets, stored at −80 °C, were thawed at room temperature and then, they were homogenized in thiobarbituric acid reactive substances (TBARS) solution (28.2 mM 2-TBA in 18.5 mL of TCA 16%-HCl 0.27 N). Then, the mixtures were heated for 10 min at 100 °C, and subsequently cooled in ice to stop the reaction. Supernatants of each sample were separated by centrifugation (3,000 rpm for 10 min at 4 °C) and immediately loaded into a SPECTROstar Nano microplate reader (BMG Labtech, Ortenberg, Germany) for absorbance measurement at 530 nm. TBARS values were expressed as nmol/mg protein.

[10] = system: MCF7 cells; assay: Cell morphology (Cytation 5 imaging); assay type: cell-based, human; conditions: MCF7, 48 h; compound at IC50, H2O2 1 mM
[11] = system: caspase-3; assay: Caspase-3 activity assay (fluorometric, cell lysates); assay type: cell-based, human; conditions: MCF7, 48 h
Description: as §3, §4

[12] = system: MCF7 cells; assay: Trypan blue dye exclusion assay: cell proliferation; assay type: cell-based, human; conditions: IC50 (55.24 μM)
Description: Cells were trypsinized, centrifuged and stained with trypan blue dye (0.4% w/v in PBS). The number of viable cells and dead cells were counted on a Neubauer hemocytometer under an inverted microscope. The percentage of cell proliferation was calculated by comparing with control cells.

[13] = system: intracellular ROS in MCF7 cells; assay: DCFH-DA assay: intracellular ROS detection; assay type: cell-based, human; conditions: compound at IC50 concentration, H2O2 1 mM
Description: Intracellular ROS were detected by fluorescent compound DCFH-DA. Cells were treated with 1.0 mM H2O2, IC50 (55.2 μM) and IC50/2 (27.6 μM) of 7-hydroxy-3,4-dihydrocadalene for 48 h. Then, culture media was replaced with DCFH-DA (20 μM dissolved in glucose 1.8 mg/mL PBS) per well and incubated in the dark for 30 min. DCF fluorescence intensity was measured using an FLx800 microplate fluorescence reader (Bio-Tek Instruments, Inc., Winooski, VT, USA) at 480 and 530 nm excitation and emission wavelengths, respectively ([LeBel, Ischiropoulos & Bondy, 1992]).

[14] = compound at IC50 concentration, H2O2 1.0 mM

CC1=CC[C@H](C(C)C)c2cc(C)c(OC(=O)Nc3ccccc3)cc21 [7-(phenylcarbamate)-3,4-dihydrocadalene]
MCF7 cell viability ([1]; MTT): did not show a clear trend of MCF7 cell viability reduction; also recorded: lower or null cytotoxic potential; also recorded: not cytotoxic

Cc1cc2c(C(C)C)ccc(C)c2cc1OC(=O)Nc1ccccc1 [7-(phenylcarbamate)-cadalene]
MCF7 cell viability ([1]; MTT): lower or null cytotoxic potential; also recorded: not cytotoxic
MCF7 cell growth ([1]; MTT, 10 and 50 µM at 72 h of exposure): slightly inhibited MCF7 cell growth

CC1=CC[C@H](C(C)C)c2cc(C)c(O)cc21 [7-hydroxy-3,4-dihydrocadalene]
Bcl-2 levels (Western blot) [2]: Slightly differences of Bcl-2 levels were observed but not significant
Expression of caspase 3 (Western blot) [3]: more evident
Effect on HEK 293 cell viability [4]: without effect
RCI [5]: slightly reduction
IC50 [6]: 61.4 µM
MCF7 migration [7]: significantly inhibits MCF7 migration
Caspase 9 activity ([8]; IC50/2 concentration): no effect
Caspase 9 activity compared to control cells [8]: 118.42%
Lipid peroxidation levels (TBARS) ([9]; IC50/2): 0.23 nmol/mg protein
Lipid peroxidation levels (TBARS) [9, 14]: 0.52 nmol/mg protein
Cell morphology [10]: morphological changes (cells are rounded off, adhesion capacity decreases, and membrane is blebbing) were observed
IC50 ([1]; Homo sapiens, 48 h): 55.2 µM
IC50 ([1]; Homo sapiens, 72 h): 52.8 µM
MCF7 cell viability ([1]; MTT): reduced MCF7 cell viability in a concentration and time-dependent manner
Caspase 3 activity ([11]; IC50/2 concentration): no effect
Cell proliferation [12]: significantly reduced cell proliferation in a concentration and time dependent manner
Intracellular ROS levels compared to control cells [13]: 182%

CC/C(=C(\c1ccc(O)cc1)c1ccc(OCCN(C)C)cc1)c1ccccc1 [(Z)-4-hydroxytamoxifen, reference compound]
IC50 ([1]; 24 h, positive control): 16.5 µM

OO [H2O2, hydrogen peroxide, reference compound]
Expression of caspase 3 (Western blot) [3]: increased
Caspase 9 activity compared to control cells [8]: 115.08%
Lipid peroxidation levels (TBARS) [9, 14]: 0.24 nmol/mg protein
Cell morphology [10]: morphological changes (cells are rounded off, adhesion capacity decreases, and membrane is blebbing) were observed
Caspase 3 activity compared to control cells ([11]; compound at IC50, H2O2 1.0 mM): 136.25%
Intracellular ROS levels compared to control cells [13]: 194.9%
